In ChEMBL document CHEMBL1149819, “Synthesis and in vivo anti-mutagenic activity of novel melatonin derivatives” (2008):

Assays:
Conditions in all cases: route intragastric
Mus musculus [1] = assay: Inhibition of cyclophosphamide-induced increase in micronuclei/polychromatic erythrocytes count in mouse at 23.04 mg/kg administered intragastrically for 1 week by micronuclei assay; format: functional; set-up: scale not given: the % may be the effect or the level left
Mus musculus [2] = assay: Antimutagenic activity in Albino mouse brain assessed as DNA level per gram of tissue at 23.04 mg/kg administered intragastrically for 1 week; format: functional
Mus musculus [3] = assay: Antimutagenic activity in Albino mouse kidney assessed as DNA level per gram of tissue at 23.04 mg/kg administered intragastrically for 1 week; format: functional
Mus musculus [4] = assay: Antimutagenic activity in Albino mouse liver assessed as DNA level per gram of tissue at 23.04 mg/kg administered intragastrically for 1 week; format: functional
Mus musculus [5] = assay: Antimutagenic activity in Albino mouse testes assessed as DNA level per gram of tissue at 23.04 mg/kg administered intragastrically for 1 week; format: functional, Testis
Mus musculus [6] = assay: Antimutagenic activity in Albino mouse brain assessed as RNA level per gram of tissue at 23.04 mg/kg administered intragastrically for 1 week; format: functional
Mus musculus [7] = assay: Antimutagenic activity in Albino mouse kidney assessed as RNA level per gram of tissue at 23.04 mg/kg administered intragastrically for 1 week; format: functional
Mus musculus [8] = assay: Antimutagenic activity in Albino mouse liver assessed as RNA level per gram of tissue at 23.04 mg/kg administered intragastrically for 1 week; format: functional
Mus musculus [9] = assay: Antimutagenic activity in Albino mouse testes assessed as RNA level per gram of tissue at 23.04 mg/kg administered intragastrically for 1 week; format: functional, Testis
Mus musculus [10] = assay: Antimutagenic activity in mouse brain assessed as protein level per gram of tissue at 23.04 mg/kg administered intragastrically for 1 week; format: functional
Mus musculus [11] = assay: Antimutagenic activity against cyclophosphamide-induced mutagenicity in mouse liver assessed as protein level per gram of tissue at 23.04 mg/kg administered intragastrically for 1 week; format: functional
Mus musculus [12] = assay: Antimutagenic activity against cyclophosphamide-induced mutagenicity in mouse testes assessed as protein level per gram of tissue at 23.04 mg/kg administered intragastrically for 1 week; format: functional, Testis
Mus musculus [13] = assay: Antimutagenic activity in mouse kidney assessed as protein level per gram of tissue at 23.04 mg/kg administered intragastrically for 1 week; format: functional
Mus musculus [14] = assay: Antimutagenic activity in mouse liver assessed as protein level per gram of tissue at 23.04 mg/kg administered intragastrically for 1 week; format: functional
Mus musculus [15] = assay: Antimutagenic activity in mouse brain assessed as peroxidase activity per microgram of tissue at 23.04 mg/kg administered intragastrically for 1 week; format: functional
Mus musculus [16] = assay: Antimutagenic activity in mouse brain assessed as cholinesterase activity per microgram of tissue at 23.04 mg/kg administered intragastrically for 1 week; format: functional
Mus musculus [17] = assay: Antimutagenic activity against cyclophosphamide-induced mutagenicity in Albino mouse brain assessed as DNA level per gram of tissue at 23.04 mg/kg administered intragastrically for 1 week; format: functional
Mus musculus [18] = assay: Antimutagenic activity against cyclophosphamide-induced mutagenicity in Albino mouse kidney assessed as DNA level per gram of tissue at 23.04 mg/kg administered intragastrically for 1 week; format: functional
Mus musculus [19] = assay: Antimutagenic activity against cyclophosphamide-induced mutagenicity in Albino mouse liver assessed as DNA level per gram of tissue at 23.04 mg/kg administered intragastrically for 1 week; format: functional
Mus musculus [20] = assay: Antimutagenic activity against cyclophosphamide-induced mutagenicity in Albino mouse testes assessed as DNA level per gram of tissue at 23.04 mg/kg administered intragastrically for 1 week; format: functional, Testis
Mus musculus [21] = assay: Antimutagenic activity against cyclophosphamide-induced mutagenicity in Albino mouse brain assessed as RNA level per gram of tissue at 23.04 mg/kg administered intragastrically for 1 week; format: functional
Mus musculus [22] = assay: Antimutagenic activity against cyclophosphamide-induced mutagenicity in Albino mouse kidney assessed as RNA level per gram of tissue at 23.04 mg/kg administered intragastrically for 1 week; format: functional
Mus musculus [23] = assay: Antimutagenic activity against cyclophosphamide-induced mutagenicity in mouse brain assessed as peroxidase activity per microgram of tissue at 23.04 mg/kg administered intragastrically for 1 week; format: functional
Mus musculus [24] = assay: Antimutagenic activity against cyclophosphamide-induced mutagenicity in mouse brain assessed as cholinesterase activity per microgram of tissue at 23.04 mg/kg administered intragastrically for 1 week; format: functional
Mus musculus [25] = assay: Antimutagenic activity against cyclophosphamide-induced mutagenicity in Albino mouse liver assessed as RNA level per gram of tissue at 23.04 mg/kg administered intragastrically for 1 week; format: functional
Mus musculus [26] = assay: Antimutagenic activity against cyclophosphamide-induced mutagenicity in Albino mouse testes assessed as RNA level per gram of tissue at 23.04 mg/kg administered intragastrically for 1 week; format: functional, Testis
Mus musculus [27] = assay: Antimutagenic activity against cyclophosphamide-induced mutagenicity in mouse brain assessed as protein level per gram of tissue at 23.04 mg/kg administered intragastrically for 1 week; format: functional
Mus musculus [28] = assay: Antimutagenic activity against cyclophosphamide-induced mutagenicity in mouse kidney assessed as protein level per gram of tissue at 23.04 mg/kg administered intragastrically for 1 week; format: functional
Mus musculus [29] = assay: Inhibition of cyclophosphamide-induced increase in micronuclei/polychromatic erythrocytes count in mouse at 14.16 mg/kg administered intragastrically for 1 week by micronuclei assay; format: functional; set-up: scale not given: the % may be the effect or the level left
Mus musculus [30] = assay: Antimutagenic activity in Albino mouse brain assessed as DNA level per gram of tissue at 18.38 mg/kg administered intragastrically for 1 week; format: functional
Mus musculus [31] = assay: Antimutagenic activity in Albino mouse kidney assessed as DNA level per gram of tissue at 18.38 mg/kg administered intragastrically for 1 week; format: functional
Mus musculus [32] = assay: Antimutagenic activity in Albino mouse liver assessed as DNA level per gram of tissue at 18.38 mg/kg administered intragastrically for 1 week; format: functional
Mus musculus [33] = assay: Antimutagenic activity in Albino mouse testes assessed as DNA level per gram of tissue at 18.38 mg/kg administered intragastrically for 1 week; format: functional, Testis
Mus musculus [34] = assay: Antimutagenic activity in Albino mouse brain assessed as RNA level per gram of tissue at 18.38 mg/kg administered intragastrically for 1 week; format: functional
Mus musculus [35] = assay: Antimutagenic activity in Albino mouse kidney assessed as RNA level per gram of tissue at 18.38 mg/kg administered intragastrically for 1 week; format: functional
Mus musculus [36] = assay: Antimutagenic activity in Albino mouse liver assessed as RNA level per gram of tissue at 18.38 mg/kg administered intragastrically for 1 week; format: functional
Mus musculus [37] = assay: Antimutagenic activity in Albino mouse testes assessed as RNA level per gram of tissue at 18.38 mg/kg administered intragastrically for 1 week; format: functional, Testis
Mus musculus [38] = assay: Antimutagenic activity in mouse brain assessed as protein level per gram of tissue at 18.38 mg/kg administered intragastrically for 1 week; format: functional
Mus musculus [39] = assay: Antimutagenic activity against cyclophosphamide-induced mutagenicity in mouse liver assessed as protein level per gram of tissue at 18.38 mg/kg administered intragastrically for 1 week; format: functional
Mus musculus [40] = assay: Antimutagenic activity against cyclophosphamide-induced mutagenicity in mouse testes assessed as protein level per gram of tissue at 18.38 mg/kg administered intragastrically for 1 week; format: functional, Testis
Mus musculus [41] = assay: Antimutagenic activity in mouse kidney assessed as protein level per gram of tissue at 18.38 mg/kg administered intragastrically for 1 week; format: functional
Mus musculus [42] = assay: Antimutagenic activity in mouse liver assessed as protein level per gram of tissue at 18.38 mg/kg administered intragastrically for 1 week; format: functional
Mus musculus [43] = assay: Antimutagenic activity in mouse brain assessed as peroxidase activity per microgram of tissue at 18.38 mg/kg administered intragastrically for 1 week; format: functional
Mus musculus [44] = assay: Antimutagenic activity in mouse brain assessed as cholinesterase activity per microgram of tissue at 18.38 mg/kg administered intragastrically for 1 week; format: functional
Mus musculus [45] = assay: Antimutagenic activity against cyclophosphamide-induced mutagenicity in Albino mouse brain assessed as DNA level per gram of tissue at 18.38 mg/kg administered intragastrically for 1 week; format: functional
Mus musculus [46] = assay: Antimutagenic activity against cyclophosphamide-induced mutagenicity in Albino mouse kidney assessed as DNA level per gram of tissue at 18.38 mg/kg administered intragastrically for 1 week; format: functional
Mus musculus [47] = assay: Antimutagenic activity against cyclophosphamide-induced mutagenicity in Albino mouse liver assessed as DNA level per gram of tissue at 18.38 mg/kg administered intragastrically for 1 week; format: functional
Mus musculus [48] = assay: Antimutagenic activity against cyclophosphamide-induced mutagenicity in Albino mouse testes assessed as DNA level per gram of tissue at 18.38 mg/kg administered intragastrically for 1 week; format: functional, Testis
Mus musculus [49] = assay: Antimutagenic activity against cyclophosphamide-induced mutagenicity in Albino mouse brain assessed as RNA level per gram of tissue at 18.38 mg/kg administered intragastrically for 1 week; format: functional
Mus musculus [50] = assay: Antimutagenic activity against cyclophosphamide-induced mutagenicity in Albino mouse kidney assessed as RNA level per gram of tissue at 18.38 mg/kg administered intragastrically for 1 week; format: functional
Mus musculus [51] = assay: Antimutagenic activity against cyclophosphamide-induced mutagenicity in Albino mouse liver assessed as RNA level per gram of tissue at 18.38 mg/kg administered intragastrically for 1 week; format: functional
Mus musculus [52] = assay: Antimutagenic activity against cyclophosphamide-induced mutagenicity in mouse brain assessed as peroxidase activity per microgram of tissue at 18.38 mg/kg administered intragastrically for 1 week; format: functional
Mus musculus [53] = assay: Antimutagenic activity against cyclophosphamide-induced mutagenicity in mouse brain assessed as cholinesterase activity per microgram of tissue at 18.38 mg/kg administered intragastrically for 1 week; format: functional
Mus musculus [54] = assay: Antimutagenic activity against cyclophosphamide-induced mutagenicity in Albino mouse testes assessed as RNA level per gram of tissue at 18.38 mg/kg administered intragastrically for 1 week; format: functional, Testis
Mus musculus [55] = assay: Antimutagenic activity against cyclophosphamide-induced mutagenicity in mouse brain assessed as protein level per gram of tissue at 18.38 mg/kg administered intragastrically for 1 week; format: functional
Mus musculus [56] = assay: Antimutagenic activity against cyclophosphamide-induced mutagenicity in mouse kidney assessed as protein level per gram of tissue at 18.38 mg/kg administered intragastrically for 1 week; format: functional

Compound: COc1ccc2c(c1)c(CCNC(C)=O)c1sc(-c3c(-c4ccccc4)cnn(-c4ccccc4)c3=N)nn12
- Activity (Mus musculus [1]): 65%
- Activity (Mus musculus [2]): 0.37 mg
- Activity (Mus musculus [3]): 0.38 mg
- Activity (Mus musculus [4]): 0.35 mg
- Activity (Mus musculus [5]): 0.39 mg
- Activity (Mus musculus [6]): 0.21 mg
- Activity (Mus musculus [7]): 0.47 mg
- Activity (Mus musculus [8]): 0.48 mg
- Activity (Mus musculus [9]): 0.36 mg
- Activity (Mus musculus [10]): 3.2 g
- Activity (Mus musculus [11]): 10.03 g
- Activity (Mus musculus [12]): 4.31 g
- Activity (Mus musculus [13]): 8.68 g
- Activity (Mus musculus [14]): 10.23 g
- Activity (Mus musculus [15]): 9.74 U/min
- Activity (Mus musculus [16]): 4.21 U
- Activity (Mus musculus [17]): 0.25 mg
- Activity (Mus musculus [18]): 0.36 mg
- Activity (Mus musculus [19]): 0.32 mg
- Activity (Mus musculus [20]): 0.31 mg
- Activity (Mus musculus [21]): 0.17 mg
- Activity (Mus musculus [22]): 0.4 mg
- Activity (Mus musculus [23]): 5.5 U/min
- Activity (Mus musculus [24]): 3.03 U
- Activity (Mus musculus [25]): 0.51 mg
- Activity (Mus musculus [26]): 0.2 mg
- Activity (Mus musculus [27]): 3.15 g
- Activity (Mus musculus [28]): 4.96 g

Compound: COc1ccc2c(c1)c(CCNC(C)=O)c1sc(-c3sc(N)c(C#N)c3N)nn12
- Activity (Mus musculus [29]): 44%
- Activity (Mus musculus [30]): 0.35 mg
- Activity (Mus musculus [31]): 0.34 mg
- Activity (Mus musculus [32]): 0.33 mg
- Activity (Mus musculus [33]): 0.35 mg
- Activity (Mus musculus [34]): 0.19 mg
- Activity (Mus musculus [35]): 0.28 mg
- Activity (Mus musculus [36]): 0.46 mg
- Activity (Mus musculus [37]): 0.27 mg
- Activity (Mus musculus [38]): 2.76 g
- Activity (Mus musculus [39]): 9.26 g
- Activity (Mus musculus [40]): 3.11 g
- Activity (Mus musculus [41]): 7.17 g
- Activity (Mus musculus [42]): 9.81 g
- Activity (Mus musculus [43]): 6.3 U/min
- Activity (Mus musculus [44]): 3.76 U
- Activity (Mus musculus [45]): 0.22 mg
- Activity (Mus musculus [46]): 0.35 mg
- Activity (Mus musculus [47]): 0.29 mg
- Activity (Mus musculus [48]): 0.3 mg
- Activity (Mus musculus [49]): 0.16 mg
- Activity (Mus musculus [50]): 0.24 mg
- Activity (Mus musculus [51]): 0.49 mg
- Activity (Mus musculus [52]): 4.1 U/min
- Activity (Mus musculus [53]): 2.85 U
- Activity (Mus musculus [54]): 0.2 mg
- Activity (Mus musculus [55]): 2.53 g
- Activity (Mus musculus [56]): 4.14 g
